Experimental findings from paper PMC10901950, “Neuroprotective and Anti-inflammatory Effects of Rubiscolin-6 Analogs with Proline Surrogates in Position 2” (Neurochemical Research, 2023) are described below.

Numbered stars: 1 amine (or outer) side, 2 acyl side, 3 side chain; on linkers, the order of the positions; unused ones are H or OH. Square brackets hold non-standard residues; d marks the D form. Ends that are not written are not given here. Peptide text beside a SMILES is read from it. Nip(3R) = O=C([C@@H]1CCCN([*:1])C1)[*:2]; Dmt = Cc1cc(O)cc(C)c1C[C@H](N)C(=O)O; Inp = O=C(O)C1CCNCC1

One assay concerns the target δ-opioid receptor (Homo sapiens, UniProt P41143). Briefly: Opioid receptor binding assay, [3H][Ile5,6]deltorphin-2 competition. As to conditions: CHO cell membranes, 0.5 nM [3H][Ile5,6]deltorphin-2, 25 °C, 120 min; mean ± SEM of four experiments in duplicate; read-out: Ki DOR. Also noted: purchased; host or cells: CHO cells (membranes). How it is done:
The opioid receptor binding assays were performed using the modified method described elsewhere. Briefly, commercial membranes of Chinese Hamster Ovary (CHO) cells transfected with human opioid receptors were used. The binding affinities for µ-, δ- and κ-opioid receptors were determined by radioligand competition analysis using [^3H]DAMGO, [^3H]deltorphin-2, and [^3H]U-69593, respectively. Membranes were incubated at 25 °C for 120 min with appropriate concentrations of a tested peptide in the presence of 0.5 nM radioligand in a total volume of 0.5 mL of 50 mM Tris/HCl (pH 7.4) containing bovine serum albumin (BSA) (1 mg/mL), bacitracin (50 µg/mL), bestatin (30 µM), and captopril (10 µM). Non-specific binding was determined in the presence of 1 µM naloxone. Incubations were terminated by the rapid filtration through the GF/B Whatman (Brentford, UK) glass fibre strips (pre-soaked for 2 h in 0.5% (v/v) […]) using Millipore Sampling Manifold (Billerica, MA, USA). The filters were washed thrice with 4 mL of ice-cold Tris buffer solution. Packard Tri-Carb 2100 TR liquid scintillation counter (Ramsey, MN, USA) was used to measure the bound radioactivity after overnight extraction of the filters in 4 mL of a Perkin Elmer Ultima Gold scintillation fluid (Wellesley, MA, USA). The data were analyzed by a nonlinear least square regression analysis computer program Graph Pad PRISM 6.0 (Graph Pad Software Inc., San Diego, CA, USA). The values of the inhibitory constants (Ki) were calculated according to the equation of Cheng and Prusoff.
The ability of R-6 and its new analogs to bind to µ-, δ- and κ-opioid receptors was determined by competitive binding assays against [^3H]DAMGO, [^3H][Ile^5,6]deltorphin-2 and [^3H]U-69593, respectively, using membranes of CHO cells transfected with opioid receptors and are summarized in Table 2.

Assay [1] has as its system LPS-stimulated RAW 264.7 cells. Briefly: Intracellular ROS formation in LPS-stimulated RAW 264.7 cells. As to conditions: LPS-stimulated, 24 h; for decrease of ROS levels: peptides 0.1-10 µM. The assay is classed as cell-based, mouse. On the procedure: The cytotoxic and anti-inflammatory effects of peptides on RAW 264.7 cells were estimated using MTT assay. Cells were incubated with peptides (0.1–10 µM) for 24 h to assess their cytoprotective activity. In the anti-inflammatory model, RAW 264.7 cells were exposed to LPS (Millipore Sigma, Darmstadt, Germany) at 1 µg/mL in the absence/presence of peptide at non-toxic concentrations (0.1–10 µM). Then, the MTT reagent was added to wells, and cells were incubated for 1.5 h at 37 °C. After this time, MTT was removed, 100 µL DMSO was added, and the resulting absorbance was read in a microplate reader (Synergy 2 BioTek Microplate Reader, Winooski, VT, USA) at 570 nm.
The detection of ROS generated in injured cells was evaluated using the 5(6)-carboxy-2ʹ,7ʹ-dichlorofluorescein diacetate (carboxy-H2DCFDA) reagent (Invitrogen, Bleiswijk, Netherlands). After incubation, cells were washed with ice-cold Phosphate-Buffer Saline (PBS). Then, the carboxyl-H2DCFDA (100 µL, 20 µM) reagent was added and incubated for 1 h at 37 °C. Finally, the fluorescence intensity was measured at wavelengths of […], and ROS levels were presented in percentage of control (non-treated cells).

The subject of the next assay is AKT. Put plainly: Western blot, AKT phosphorylation in 6-OHDA-treated SH-SY5Y cells. The assay is classed as cell-based, human. As to conditions: for AKT phosphorylation / stimulation time for maximum effect on AKT phosphorylation: peptide 10 µM; for AKT phosphorylation: 2.5-10 min, 6-OHDA 100 µM treated cells; for stimulation time for maximum effect on AKT phosphorylation: 6-OHDA-treated cells, p-AKT (Ser473)/total AKT; for effect of peptide on AKT phosphorylation after LY 294002 pre-treatment: LY 294002 20 µM 30 min before peptide 10 µM and 6-OHDA 100 µM, 7.5 min (5), 2.5 min (7). How it is done: The neuroblastoma SH-SY5Y cells were grown in a 6-well plate and when 80–90% confluent treated with 6-OHDA (100 µM) for 24 h. Then cells were stimulated with peptides for 2.5, 5, 7.5 and 10 min (for AKT) or 24 h (for mTOR). When needed, a 30 min pre-incubation step with LY 294002 was included before analogs and 6-OHDA addition. Stimulation was terminated by aspiration of the medium. Cells were washed 2 times with ice-cold PBS, and then 200 µL of ice-cold lysis buffer [150 mM NaCl, 20 mM Tris–HCl, glycerol, 5 mM EDTA, 0.5 mM phenylmethylsulphonylfluoride (PMSF), 10% Triton X-100, 100 mM protease inhibitors, pH 7.4] was added. Cells were incubated on ice for 15 min. Lysates were then centrifuged at 12,000×g for 10 min at 4 °C, and the supernatants were used as the total cell lysates. The protein content in the supernatants was quantified using the Bio-Rad protein assay kit. Equal amounts of protein were separated on 10% sodium dodecyl sulfate (SDS)-polyacrylamide gels and transferred to polyvinylidene difluoride membranes from (PVDF, Millipore, Cork, Ireland). Non-specific binding was blocked with tris-buffered saline Tween-20 (TBS-T: 150 mM NaCl, 20 mM Tris–HCl, 0.1% Tween 20, pH 7.5) containing 5% nonfat milk for 2 h at room temperature. Then, the membrane was incubated overnight at 4 °C with one of the following specific primary antibodies: Vinculin (1:1000 dilution; Cell Signalling Technology, Danvers, MA, USA), p-AKT (1:1000 dilution; Cell Signalling Technology, Danvers, MA, USA), AKT (1:1000 dilution; Cell Signalling Technology, Danvers, MA, USA), p-mTOR (1:1000 dilution; Cell Signalling Technology, Danvers, MA, USA), mTOR (1:1000 dilution; Cell Signalling Technology, Danvers, MA, USA). After incubation, membranes were washed six times per 5 min with TBS-T. In the next step, membranes were incubated with HRP-conjugated secondary antibodies (1:1000 dilution; Cell Signalling Technology, Danvers, MA, USA) for 1 h. Following six washes with TBS-T, the protein bands were detected with the Clarity Western ECL reagent from Bio-Rad. The band intensity was quantified by NIH ImageJ densitometric analysis. For quantification, specific phosphorylation was calculated as the ratio of phosphorylated AKT or mTOR signals to the total Akt or mTOR signal detected. Values of unstimulated samples were set to 1.0. The original immunoblots are provided in Supplementary data.

δ-opioid receptor, sequence (P41143 whole entry): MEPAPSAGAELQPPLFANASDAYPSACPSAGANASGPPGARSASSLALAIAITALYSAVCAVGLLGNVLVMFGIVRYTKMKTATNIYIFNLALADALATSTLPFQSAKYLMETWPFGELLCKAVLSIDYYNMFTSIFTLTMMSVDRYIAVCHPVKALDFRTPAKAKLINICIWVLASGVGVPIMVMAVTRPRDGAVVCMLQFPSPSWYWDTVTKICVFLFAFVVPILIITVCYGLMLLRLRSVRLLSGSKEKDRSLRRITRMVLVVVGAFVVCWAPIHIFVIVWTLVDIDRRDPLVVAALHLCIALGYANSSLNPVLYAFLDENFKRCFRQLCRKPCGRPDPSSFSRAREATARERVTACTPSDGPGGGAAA

On to `CC(C)C[C@H](NC(=O)[C@@H]1CCCN(C(=O)[C@@H](N)Cc2ccc(O)cc2)C1)C(=O)N[C@@H](CC(=O)O)C(=O)N[C@@H](CC(C)C)C(=O)N[C@@H](Cc1ccccc1)C(=O)O` [analog 2, Tyr-(R)-Nip-Leu-Asp-Leu-Phe-OH] (H-Y[Nip(3R)]LDLF-OH), for which the Ki (in general, the dissociation constant of the complex between target and ligand, obtained from inhibition or displacement) at δ-opioid receptor was over 1 µM. Besides, in assay [1] (DCFH-DA), the “decrease of ROS levels” value is given as at most 40%.
For YPLDLF [R-6, rubiscolin-6] the same measures were 0.0115 ± 0.00225 µM and at most 40%.
On to `CC(C)C[C@H](NC(=O)C1CCN(C(=O)[C@@H](N)Cc2ccc(O)cc2)CC1)C(=O)N[C@@H](CC(=O)O)C(=O)N[C@@H](CC(C)C)C(=O)N[C@@H](Cc1ccccc1)C(=O)O` [analog 3, Tyr-Inp-Leu-Asp-Leu-Phe-OH] (H-Y[Inp]LDLF-OH), for which the Ki at δ-opioid receptor worked out at 0.734 ± 0.0313 µM. Also, in the assay with AKT, the AKT phosphorylation result is listed as “transiently stimulated” and the “stimulation time for maximum effect on AKT phosphorylation” value (“stimulation time for maximum effect” below) was 7.5 min. Further, the “effect on ROS levels” value in assay [1] (peptide 0.1 µM) is “protective effect”.
As for “YPLDLF-NH2 [analog 6, Tyr-Pro-Leu-Asp-Leu-Phe-NH2]”, the Ki on δ-opioid receptor was over 1 µM.
With `Cc1cc(O)cc(C)c1C[C@H](N)C(=O)N1CCC(C(=O)N[C@@H](CC(C)C)C(=O)N[C@@H](CC(=O)O)C(=O)N[C@@H](CC(C)C)C(=O)N[C@@H](Cc2ccccc2)C(=O)O)CC1` [analog 5, Dmt-Inp-Leu-Asp-Leu-Phe-OH] (H-[Dmt][Inp]LDLF-OH), the Ki at δ-opioid receptor was determined as 0.0131 ± 0.00308 µM. In addition, in the assay on AKT, the “effect of peptide on AKT phosphorylation after LY 294002 pre-treatment” value is reported as “significantly blocked”, the AKT phosphorylation result is “transiently stimulated” and the “stimulation time for maximum effect” value came to 7.5 min. Further, the “effect on ROS levels” value in assay [1] (peptide 0.1 µM) was “protective effect”.
As to `Cc1cc(O)cc(C)c1C[C@H](N)C(=O)N1CCC[C@H]1C(=O)N[C@@H](CC(C)C)C(=O)N[C@@H](CC(=O)O)C(=O)N[C@@H](CC(C)C)C(=O)N[C@@H](Cc1ccccc1)C(=O)O` [analog 1, Dmt-Pro-Leu-Asp-Leu-Phe-OH] (H-[Dmt]PLDLF-OH), the Ki at δ-opioid receptor was 0.0917 ± 0.0297 µM. In assay [1] (DCFH-DA), the “decrease of ROS levels” value was at most 40%.
With `Cc1cc(O)cc(C)c1C[C@H](N)C(=O)N1CCC[C@@H](C(=O)N[C@@H](CC(C)C)C(=O)N[C@@H](CC(=O)O)C(=O)N[C@@H](CC(C)C)C(=O)N[C@@H](Cc2ccccc2)C(=O)O)C1` [analog 4, Dmt-(R)-Nip-Leu-Asp-Leu-Phe-OH] (H-[Dmt][Nip(3R)]LDLF-OH), at δ-opioid receptor, the Ki is over 1 µM. The “decrease of ROS levels” value in assay [1] (DCFH-DA) was at most 40%.
`CC(C)C[C@H](NC(=O)C1CCN(C(=O)[C@@H](N)Cc2ccc(O)cc2)CC1)C(=O)N[C@@H](CC(=O)O)C(=O)N[C@@H](CC(C)C)C(=O)N[C@@H](Cc1ccccc1)C(N)=O` [analog 7, Tyr-Inp-Leu-Asp-Leu-Phe-NH2] (H-Y[Inp]LDLF-NH2): the Ki on δ-opioid receptor came to 0.773 ± 0.137 µM. In the assay on AKT, the “effect of peptide on AKT phosphorylation after LY 294002 pre-treatment” value was “significantly blocked”, the AKT phosphorylation result was “transiently stimulated” and the “stimulation time for maximum effect” value came to 2.5 min. Moreover, the “reduction of ROS levels” value in assay [1] (peptide 0.1 µM, DCFH-DA) is reported as “about 50%”.
